Reference: US4699928A, “Fluoroallylamine derivatives” (Merrell Dow Pharmaceuticals Inc., priority 1986, dated 1987)

Legend:
MAO-A = experiment: Inhibition of MAO-A ex vivo; type: in vivo, male Sprague-Dawley rats; conditions: p.o.; 1080 min
Method: (§1) The ability of a compound of Formula I to inhibit MAO can be determined ex vivo by the following procedure:
(§2) The test compound is administered orally (p.o.) to 300-350 g male Sprague-Dawley rats (Charles River, France) and the animals are killed 18 hours after treatment. The brain, heart, liver and/or duodenum is removed and either a crude homogenate or a mitochondrial fraction, described in Example 5, Part (A), is prepared. MAO activity is determined in the homogenates using ^14 C p-tyramine, as the substrate. Table III gives the results of the testing of (Z)-2-(2',4'-dichlorophenoxy)methyl-3-fluoroallylamine according to the above described procedure. Selectivity can be determined by repeating the above-described test using either ^14 C […] (for MAO-A) or ^14 C phenethylamine (for MAO-B) as the substrate for determining the percentage inhibition.

MAO-B = experiment: Inhibition of MAO ex vivo, phenethylamine as substrate (MAO-B); type: in vivo, male Sprague-Dawley rats; conditions: for % Inhibition, Brain (2) / % Inhibition, Duodenum (2) / % Inhibition, Heart (2) / % Inhibition, Liver (2): 18 h, 14C phenethylamine
Method: as §1, §2

[1] = test system: heart monoamines and their metabolites; experiment: Inhibition of MAO in vivo: heart monoamines and their metabolites (HPLC); set-up: species or system male Sprague-Dawley rats; NE, Table V (heart) / DOPAC, Table V (heart) / 5HT, Table V (heart) / 5HIAA, Table V (heart): unit not given beside the values; conditions: for 5HIAA, Table V (heart) / DOPAC, Table V (heart) / NE, Table V (heart) / HVA, Table V (heart) / 5HT, Table V (heart): 18 h; for 5HIAA, Table V (heart): control 7 ± 1; for DOPAC, Table V (heart): control 78 ± 22; for NE, Table V (heart): control 735 ± 100; for HVA, Table V (heart): control 38 ± 9; for 5HT, Table V (heart): control 808 ± 50
Method: The ability of a compound of Formula I to inhibit MAO can be determined in vivo using brain and heart samples obtained from the ex vivo study reported in Example 9. Monoamines and their deaminated metabolites were determined by HPLC with electrochemical detection by the method of J. Wagner et al, J. Neurochem. 38 1241-1254.
When (Z)-2-(2',4'-dichlorophenoxy)methyl-3-fluoroallylamine is tested according to the above-described procedure, the results given in Tables IV and V are obtained. In these tables the following abbreviations are used: […]

In the case of NC/C(=C/F)COc1ccc(Cl)cc1Cl [(z)-2-(2',4'-dichlorophenoxy)methyl-3-fluoroallylamine], the “dose needed to inhibit MAO-A activity by more than 50%” value (MAO-A) is reported as “greater than 5 mg/kg”, the “% Inhibition, Brain (2)” value (MAO-B; 1 mg/kg po) is reported as 85% and the “% Inhibition, Duodenum (2)” value (MAO-B; 1 mg/kg po) is reported as 73%. The “% Inhibition, Heart (2)” value (MAO-B; 1 mg/kg po) was 40%, the “% Inhibition, Liver (2)” value (MAO-B; 1 mg/kg po) was 57% and the “% Inhibition, Brain (2)” value (MAO-B; 2.5 mg/kg po) was 90%. The “% Inhibition, Duodenum (2)” value (MAO-B; 2.5 mg/kg po) was 82%, the “% Inhibition, Heart (2)” value (MAO-B; 2.5 mg/kg po) was 31% and the “% Inhibition, Liver (2)” value (MAO-B; 2.5 mg/kg po) was 67%. The “% Inhibition, Brain (2)” value (MAO-B; 5 mg/kg po) was 93%, the “% Inhibition, Duodenum (2)” value (MAO-B; 5 mg/kg po) was 95% and the “% Inhibition, Heart (2)” value (MAO-B; 5 mg/kg po) was 40%. The “% Inhibition, Liver (2)” value (MAO-B; 5 mg/kg po) was 89%, the “% Inhibition, Brain (2)” value (MAO-B; 10 mg/kg po) was 96% and the “% Inhibition, Duodenum (2)” value (MAO-B; 10 mg/kg po) was 96%. The “% Inhibition, Heart (2)” value (MAO-B; 10 mg/kg po) was 40%, the “% Inhibition, Liver (2)” value (MAO-B; 10 mg/kg po) was 90% and the “% Inhibition, Brain (2)” value (MAO-B; 25 mg/kg po) was 98%. The “% Inhibition, Duodenum (2)” value (MAO-B; 25 mg/kg po) was 98%, the “% Inhibition, Heart (2)” value (MAO-B; 25 mg/kg po) was 64% and the “% Inhibition, Liver (2)” value (MAO-B; 25 mg/kg po) was 95%. For the same molecule, the “preferential inhibition of MAO-B in the four tissues” value (MAO-B; at the dose levels tested (1-25 mg/kg po)) was “preferential inhibition of MAO-B”, the “inhibition of brain MAO-B” value (MAO-B; doses as low as 1 mg/kg p.o.) was “greater than 80%” and the “5HIAA, Table V (heart)” value ([1]; 1 mg/kg p.o.) was 16 ± 4. The “DOPAC, Table V (heart)” value ([1]; 1 mg/kg p.o.) was 56 ± 11, the “NE, Table V (heart)” value ([1]; 1 mg/kg p.o.) was 741 ± 56 and the “HVA, Table V (heart)” value ([1]; 1 mg/kg p.o., p <0.02) was 71 ± 6. The “5HT, Table V (heart)” value ([1]; 1 mg/kg p.o., spread ± 79) was 1017, the “5HIAA, Table V (heart)” value ([1]; 2.5 mg/kg p.o.) was 7 ± 1 and the “HVA, Table V (heart)” value ([1]; 2.5 mg/kg p.o.) was 53 ± 8. The “DOPAC, Table V (heart)” value ([1]; 2.5 mg/kg p.o.) was 46 ± 12, the “NE, Table V (heart)” value ([1]; 2.5 mg/kg p.o.) was 762 ± 20 and the “5HT, Table V (heart)” value ([1]; 2.5 mg/kg p.o., spread ± 108) was 995. The “5HIAA, Table V (heart)” value ([1]; 5 mg/kg p.o.) was 20 ± 6, the “HVA, Table V (heart)” value ([1]; 5 mg/kg p.o.) was 60 ± 16 and the “DOPAC, Table V (heart)” value ([1]; 5 mg/kg p.o.) was 56 ± 7. For the same molecule, the “NE, Table V (heart)” value ([1]; 5 mg/kg p.o.) was 875 ± 53, the “5HT, Table V (heart)” value ([1]; 5 mg/kg p.o., spread ± 154) was 1018 and the “5HIAA, Table V (heart)” value ([1]; 10 mg/kg p.o.) was 14 ± 2. The “HVA, Table V (heart)” value ([1]; 10 mg/kg p.o.) was 55 ± 3, the “DOPAC, Table V (heart)” value ([1]; 10 mg/kg p.o.) was 62 ± 5 and the “NE, Table V (heart)” value ([1]; 10 mg/kg p.o.) was 729 ± 58. For the same molecule, the “5HT, Table V (heart)” value ([1]; 10 mg/kg p.o., spread ± 82) was 850, the “DOPAC, Table V (heart)” value ([1]; 25 mg/kg p.o.) was 87 ± 27 and the “NE, Table V (heart)” value ([1]; 25 mg/kg p.o.) was 765 ± 50. For the same molecule, the “5HIAA, Table V (heart)” value ([1]; 25 mg/kg p.o., p <0.02) was 26 ± 4, the “HVA, Table V (heart)” value ([1]; 25 mg/kg p.o., p <0.02) was 65 ± 4 and the “5HT, Table V (heart)” value ([1]; 25 mg/kg p.o., spread ± 113) was 685. The “monoamines or their metabolites in the heart, in words” value ([1]; 1-25 mg/kg p.o.) was “no consistent changes”.
